In PubChem BioAssay AID200 (DTP/NCI, 2004):
Several values for one entry are separate records, joined by “and”; a condition that tells them apart may be missing. Identical values can stand only once. Inconclusive results and toxic doses are left out. Where a SMILES comes first, the peptide text is derived from it. [ ]: non-standard residue; d: D form. The star is where a group is joined. Nle = CCCC[CH](N)C(=O)O; Cbz = O=C(OCc1ccccc1)*

Tested on: B6C3F1 mice, B16 melanoma ip, median survival T/C
Assay: NCI In Vivo Anticancer Drug Screen. Data for tumor model B16 Melanoma (intraperitoneal) in B6C3F1 mice
Details: endpoint: median survival time, higher = longer survival
Procedure, shortened: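 Readout: survival or tumor size in treated mice relative to vehicle controls (T/C). Model uses transplantable tumors grown in mice.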

[1] = dose: 25.0 mg/kg/injection, schedule: Q01DX009 (ip), vehicle: water
[2] = dose: 50.0 mg/kg/injection, schedule: Q01DX009 (ip), vehicle: water
[3] = dose: 100.0 mg/kg/injection, schedule: Q01DX009 (ip), vehicle: water
[4] = dose: 25.0 mg/kg/injection, schedule: Q01DX009 (ip), vehicle: saline with Tween-80
[5] = dose: 50.0 mg/kg/injection, schedule: Q01DX009 (ip), vehicle: saline with Tween-80
[6] = dose: 100.0 mg/kg/injection, schedule: Q01DX009 (ip), vehicle: saline with Tween-80
[7] = dose: 200.0 mg/kg/injection, schedule: Q01DX009 (ip), vehicle: saline with Tween-80
[8] = dose: 12.5 mg/kg/injection, schedule: Q01DX009 (ip), vehicle: saline with Tween-80
[9] = dose: 400.0 mg/kg/injection, schedule: Q01DX009 (ip), vehicle: saline with Tween-80
[10] = dose: 12.5 mg/kg/injection, schedule: Q01DX009 (ip), vehicle: saline
[11] = dose: 25.0 mg/kg/injection, schedule: Q01DX009 (ip), vehicle: saline
[12] = dose: 100.0 mg/kg/injection, schedule: Q01DX009 (ip), vehicle: saline
[13] = dose: 200.0 mg/kg/injection, schedule: Q01DX009 (ip), vehicle: saline
[14] = dose: 25.0 mg/kg/injection, schedule: Q01DX009 (ip), vehicle: Klucel (hydroxypropylcellulose) (HPC)
[15] = dose: 50.0 mg/kg/injection, schedule: Q01DX009 (ip), vehicle: Klucel (hydroxypropylcellulose) (HPC)
[16] = dose: 100.0 mg/kg/injection, schedule: Q01DX009 (ip), vehicle: Klucel (hydroxypropylcellulose) (HPC)
[17] = dose: 200.0 mg/kg/injection, schedule: Q01DX009 (ip), vehicle: Klucel (hydroxypropylcellulose) (HPC)
[18] = dose: 12.5 mg/kg/injection, schedule: Q01DX009 (ip), vehicle: water
[19] = dose: 400.0 mg/kg/injection, schedule: Q01DX009 (ip), vehicle: Klucel (hydroxypropylcellulose) (HPC)
[20] = dose: 50.0 mg/kg/injection, schedule: Q01DX009 (ip), vehicle: saline
[21] = dose: 12.5 mg/kg/injection, schedule: Q01DX009 (ip), vehicle: Klucel (hydroxypropylcellulose) (HPC)

## C=C(C)C12OC3(CCCCCCCCC)OC1C1C4OC4(COC(=O)CCCCCCCCCCCCCCC)C(O)C4(O)C(=O)C(C)=CC4C1(O3)C(C)C2OC(=O)c1ccccc1 (centres undefined)
dose: 5.0 micrograms/kg/injection, schedule: Q01DX009 (ip), vehicle: saline + alcohol
  T/C: 96 % of control
dose: 10.0 micrograms/kg/injection, schedule: Q01DX009 (ip), vehicle: saline + alcohol
  T/C: 99 % of control
dose: 20.0 micrograms/kg/injection, schedule: Q01DX009 (ip), vehicle: saline + alcohol
  T/C: 86 % of control
dose: 40.0 micrograms/kg/injection, schedule: Q01DX009 (ip), vehicle: saline + alcohol
  T/C: 88 % of control

## [Na+]
[1]
  T/C: 111 % of control
[2]
  T/C: 91 % of control
[3]
  T/C: 92 % of control
dose: 200.0 mg/kg/injection, schedule: Q01DX009 (ip), vehicle: water
  T/C: 106 % of control
dose: 400.0 mg/kg/injection, schedule: Q01DX009 (ip), vehicle: water
  T/C: 86 % of control

## C[C@]12CC[C@H](O)CC1=CC[C@@H]1[C@@H]2CC[C@]2(C)C(=O)CC[C@@H]12
[4]
  T/C: 100 % of control
[5]
  T/C: 97 % of control
[6]
  T/C: 101 % of control
[7]
  T/C: 92 % of control

## Cc1ccc(S(=O)(=O)NC(=O)OC23COCN2COC3)cc1
[8]
  T/C: 112 % of control and 113 % of control
[4]
  T/C: 108 % of control and 106 % of control
[5]
  T/C: 118 % of control
[6]
  T/C: 104 % of control
[7]
  T/C: 105 % of control
[9]
  T/C: 111 % of control and 122 % of control

## C1OC1CO[C@@H]1CO[C@H]2[C@@H]1OC[C@H]2OCC1CO1 (some centres undefined)
[10]
  T/C: 111 % of control
dose: 12.5 mg/kg/injection, schedule: Q01DX009 (ip), vehicle: suspension in saline
  T/C: 111 % of control
[11]
  T/C: 115 % of control
dose: 25.0 mg/kg/injection, schedule: Q01DX009 (ip), vehicle: suspension in saline
  T/C: 111 % of control
[12]
  T/C: 171 % of control and 182 % of control
dose: 100.0 mg/kg/injection, schedule: Q01DX009 (ip), vehicle: suspension in saline
  T/C: 153 % of control
[13]
  T/C: 220 % of control and 235 % of control
dose: 200.0 mg/kg/injection, schedule: Q01DX009 (ip), vehicle: suspension in saline
  T/C: 205 % of control

## C=CCNc1nc2c(s1)CCc1cc(OC)c(OC)cc1-2
[8]
  T/C: 103 % of control
[4]
  T/C: 116 % of control
[5]
  T/C: 107 % of control
[6]
  T/C: 100 % of control
[7]
  T/C: 103 % of control
[9]
  T/C: 103 % of control

## O=C(NC(Cc1c[nH]c2ccccc12)C(=O)O)OCC1c2ccccc2-c2ccccc21 (centres undefined)
[14]
  T/C: 102 % of control
[15]
  T/C: 92 % of control
[16]
  T/C: 103 % of control

## O=C1SC(c2ccccc2)=S=C1c1ccccc1
[14]
  T/C: 92 % of control
[15]
  T/C: 97 % of control
[16]
  T/C: 98 % of control
[17]
  T/C: 93 % of control

## CCCCC(NC(=O)OCc1ccccc1)C(=O)NC(C(=O)O)C(C)C (centres undefined) (Cbz-[Nle]-Val-OH; configuration not given here)
[16]
  T/C: 108 % of control
[17]
  T/C: 105 % of control

## NC(=O)c1c[se]c(C2OC(CO)C(O)C2O)n1 (centres undefined)
[18]
  T/C: 109 % of control
[1]
  T/C: 102 % of control
[2]
  T/C: 115 % of control
[3]
  T/C: 109 % of control

## Nc1n[n+](-c2ccc(Cl)cc2)no1
dose: 3.12 mg/kg/injection, schedule: Q01DX009 (ip), vehicle: water
  T/C: 109 % of control
dose: 6.25 mg/kg/injection, schedule: Q01DX009 (ip), vehicle: water
  T/C: 102 % of control and 107 % of control
[18]
  T/C: 103 % of control
[1]
  T/C: 111 % of control and 123 % of control
[2]
  T/C: 116 % of control

## O=Cc1ccccc1
[8]
  T/C: 101 % of control
[14]
  T/C: 100 % of control
[4]
  T/C: 99 % of control
[15]
  T/C: 105 % of control
[5]
  T/C: 98 % of control
dose: 50.0 mg/kg/injection, schedule: Q01DX009 (oral), vehicle: Klucel (hydroxypropylcellulose) (HPC)
  T/C: 95 % of control
[6]
  T/C: 98 % of control
dose: 100.0 mg/kg/injection, schedule: Q01DX009 (oral), vehicle: Klucel (hydroxypropylcellulose) (HPC)
  T/C: 88 % of control
[17]
  T/C: 86 % of control
[7]
  T/C: 89 % of control
dose: 200.0 mg/kg/injection, schedule: Q01DX009 (oral), vehicle: Klucel (hydroxypropylcellulose) (HPC)
  T/C: 98 % of control
[19]
  T/C: 92 % of control
dose: 400.0 mg/kg/injection, schedule: Q01DX009 (oral), vehicle: Klucel (hydroxypropylcellulose) (HPC)
  T/C: 105 % of control

## Cn1cnc([N+](=O)[O-])c1SCC(=O)O
[8]
  T/C: 104 % of control
[10]
  T/C: 109 % of control
[4]
  T/C: 89 % of control
[11]
  T/C: 114 % of control
[5]
  T/C: 103 % of control
[20]
  T/C: 122 % of control
[6]
  T/C: 98 % of control
[12]
  T/C: 108 % of control
[7]
  T/C: 97 % of control
[13]
  T/C: 104 % of control
[9]
  T/C: 97 % of control
dose: 400.0 mg/kg/injection, schedule: Q01DX009 (ip), vehicle: saline
  T/C: 99 % of control

## Nc1nc(/C=C(/O)c2ccccc2)c2ncn(C3OC(CO)C(O)C3O)c2n1 (centres undefined)
dose: 12.5 mg/kg/injection, schedule: Q01DX009 (ip), vehicle: distilled water + Tween-80
  T/C: 103 % of control
[10]
  T/C: 102 % of control
dose: 25.0 mg/kg/injection, schedule: Q01DX009 (ip), vehicle: distilled water + Tween-80
  T/C: 101 % of control
[11]
  T/C: 101 % of control
dose: 50.0 mg/kg/injection, schedule: Q01DX009 (ip), vehicle: distilled water + Tween-80
  T/C: 95 % of control
[20]
  T/C: 111 % of control
dose: 100.0 mg/kg/injection, schedule: Q01DX009 (ip), vehicle: distilled water + Tween-80
  T/C: 101 % of control
[12]
  T/C: 101 % of control
[13]
  T/C: 103 % of control

## Nc1ccc(S(N)(=O)=O)cc1
[8]
  T/C: 94 % of control
[4]
  T/C: 86 % of control and 99 % of control
[5]
  T/C: 98 % of control and 100 % of control
[6]
  T/C: 105 % of control and 108 % of control
[7]
  T/C: 114 % of control and 101 % of control
[9]
  T/C: 90 % of control and 99 % of control

## N/C(=N\OC(=O)Nc1ccc(CSc2ccc(Cl)cc2)o1)c1ccccn1
[21]
  T/C: 97 % of control
[14]
  T/C: 95 % of control
[15]
  T/C: 91 % of control
[16]
  T/C: 91 % of control
[17]
  T/C: 86 % of control

## CC1CCC(n2cnc3c(Cl)ncnc32)O1 (centres undefined)
[21]
  T/C: 97 % of control and 104 % of control
[14]
  T/C: 92 % of control and 104 % of control
[15]
  T/C: 92 % of control and 98 % of control
[16]
  T/C: 97 % of control and 104 % of control
[17]
  T/C: 92 % of control and 93 % of control

## O=C(CCBr)NCCNC(=O)CCBr
dose: 43.7 mg/kg/injection, schedule: Q01DX009 (ip), vehicle: saline with Tween-80
  T/C: 96 % of control
dose: 87.5 mg/kg/injection, schedule: Q01DX009 (ip), vehicle: saline with Tween-80
  T/C: 100 % of control
dose: 175.0 mg/kg/injection, schedule: Q01DX009 (ip), vehicle: saline with Tween-80
  T/C: 98 % of control

## O=NN(CCF)C(=O)NC1CCC(=O)NC1=O (centres undefined)
dose: 7.5 mg/kg/injection, schedule: Q01DX001 (ip), vehicle: saline
  T/C: 192 % of control
dose: 15.0 mg/kg/injection, schedule: Q01DX001 (ip), vehicle: saline
  T/C: 194 % of control
dose: 30.0 mg/kg/injection, schedule: Q01DX001 (ip), vehicle: saline
  T/C: 235 % of control
dose: 60.0 mg/kg/injection, schedule: Q01DX001 (ip), vehicle: saline
  T/C: 233 % of control

## CCC(=O)Sc1ccccc1C(=O)Nc1ccc(Cl)cc1
[4]
  T/C: 104 % of control
[5]
  T/C: 117 % of control
[6]
  T/C: 108 % of control
[7]
  T/C: 115 % of control

## NC(N)=NS(=O)(=O)c1ccc(NCc2c3ccccc3nc3ccccc23)cc1
[14]
  T/C: 159 % of control
[15]
  T/C: 184 % of control
[16]
  T/C: 213 % of control
[17]
  T/C: 238 % of control
[19]
  T/C: 238 % of control
dose: 800.0 mg/kg/injection, schedule: Q01DX009 (ip), vehicle: Klucel (hydroxypropylcellulose) (HPC)
  T/C: 250 % of control

## O=C1[C@H]2CCC[C@H]2[C@H]2CCC[C@@H]12
dose: 6.25 mg/kg/injection, schedule: Q01DX009 (ip), vehicle: saline with Tween-80
  T/C: 102 % of control
[8]
  T/C: 99 % of control
[4]
  T/C: 100 % of control
[5]
  T/C: 100 % of control
[6]
  T/C: 100 % of control

## Cc1ccccc1N(CC1CO1)CC1CO1 (centres undefined)
[10]
  T/C: 113 % of control
[11]
  T/C: 105 % of control
[20]
  T/C: 100 % of control
[12]
  T/C: 116 % of control
[13]
  T/C: 124 % of control

## C=C(NC(=O)C(=C)NC(=O)c1csc(C2=NC3c4csc(n4)C4NC(=O)c5csc(n5)C(C(C)(O)C(C)O)NC(=O)C5CSC(=N5)/C(=C/C)NC(=O)C(C(C)O)NC(=O)c5csc(n5)C3(CC2)NC(=O)C(C)NC(=O)C(=C)NC(=O)C(C)NC(=O)C(C(C)CC)NC2C=Cc3c(C(C)O)cc(nc3C2O)C(=O)OC4C)n1)C(N)=O (centres undefined)
[21]
  T/C: 116 % of control
[14]
  T/C: 104 % of control
[15]
  T/C: 105 % of control
[16]
  T/C: 107 % of control
[17]
  T/C: 96 % of control
[19]
  T/C: 99 % of control
